Results reported in patent US20160318987A1 (MEDIMMUNE LIMITED, priority 2013, published 2016).
pEC50: −log10 of the molar value. “Also recorded” adds a separate entry of the source. Where a SMILES comes first, the peptide text is derived from it. [ ]: non-standard residue; d: D form. αMeF = C[C@](N)(Cc1ccccc1)C(=O)O; Aib = CC(C)(N)C(=O)O

Key:
hGLP-1R = target: T1, hGLP-1R (Homo sapiens, UniProt P43220); experiment: cAMP functional assay, cells expressing human GLP-1 receptor (primary assay); assay type: cell-based
T1 construct: expressed in transfected cells

hGIP-R = target: T2, hGIP-R (Homo sapiens, UniProt P48546); experiment: cAMP functional assay, cells expressing human GIP receptor (primary assay); assay type: cell-based; details: n = 2
T2 construct: expressed in transfected cells
T2 sequence (P48546 22-466): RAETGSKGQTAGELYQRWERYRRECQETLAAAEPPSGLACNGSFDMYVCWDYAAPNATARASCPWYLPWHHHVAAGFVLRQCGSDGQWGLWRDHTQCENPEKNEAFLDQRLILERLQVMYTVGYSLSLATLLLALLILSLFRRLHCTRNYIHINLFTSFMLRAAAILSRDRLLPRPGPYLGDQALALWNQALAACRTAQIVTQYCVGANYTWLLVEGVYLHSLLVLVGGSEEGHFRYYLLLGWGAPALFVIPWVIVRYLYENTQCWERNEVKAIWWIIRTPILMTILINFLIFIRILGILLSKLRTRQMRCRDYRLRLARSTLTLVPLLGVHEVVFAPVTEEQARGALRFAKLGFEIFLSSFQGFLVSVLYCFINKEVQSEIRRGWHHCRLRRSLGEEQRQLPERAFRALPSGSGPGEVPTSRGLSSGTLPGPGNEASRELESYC

Neprilysin (rhNEP) = target: T3, Neprilysin (rhNEP) (Homo sapiens, UniProt P08473); experiment: neprilysin stability study (LC/MS); assay type: in vitro ADME
T3 construct: purchased R&D Systems 1182-ZNC-010
Protocol: (§1) Peptides for evaluation were prepared to a concentration of 1.0 mg/mL solutions in either pure water, sterile saline for injection (0.9% w/v NaCl/water) or 1× PBS (Dulbecco). 100 μL (100 μg/mL peptide) of these solutions was added to 900 μL of each protease solution. Additional experiments were performed examining protein degradation during exposure to serum and gastric fluid. For serum studies, peptides were incubated with 50% female Sprague-Dawley strain rat serum (SD rat serum). For gastric fluid studies, peptides were incubated 1:1 (volume:volume), fresh rat gastric fluid.
(§2) The peptide and enzyme (or serum or gastric fluid) were co-incubated in a temperature regulated water bath at 37° C. for the duration of the experiment. During each experiment 100 μL aliquots (10 μg peptide) of the incubated peptide-enzyme mixture were withdrawn periodically, quenched by addition of an equal volume of 5% TFA (v/v) in 1:1 water/acetonitrile to arrest proteolytic activity, and analyzed by liquid chromatography-mass spectrometry (LC/MS): Agilent Polaris C8-A column (4.6×100 mm, 3 micron) using a linear binary gradient of 10-90% MeCN (0.1% TFA v/v) in water (0.1% TFA v/v) over 30 minutes at 1.5 mL min^−1 at ambient temperature. Analytes were detected by both UV absorption at 210 nm and ionization using a Waters 3100 mass detector (ESI^+ mode). New peptidic species (fragments) derived from enzymatic cleavage of peptides were analyzed post-process, and their molecular masses were used to identify the precise cleavage position (highlighting the scissile bond in each case).

Chymotrypsin (rhCTRC) [1] = target: T4, Chymotrypsin (rhCTRC) (Homo sapiens, UniProt Q99895); experiment: chymotrypsin stability study (LC/MS); assay type: in vitro ADME; details: chymotrypsin
T4 construct: purchased R&D Systems 6907-SE-010
T4 sequence (Q99895 30-268): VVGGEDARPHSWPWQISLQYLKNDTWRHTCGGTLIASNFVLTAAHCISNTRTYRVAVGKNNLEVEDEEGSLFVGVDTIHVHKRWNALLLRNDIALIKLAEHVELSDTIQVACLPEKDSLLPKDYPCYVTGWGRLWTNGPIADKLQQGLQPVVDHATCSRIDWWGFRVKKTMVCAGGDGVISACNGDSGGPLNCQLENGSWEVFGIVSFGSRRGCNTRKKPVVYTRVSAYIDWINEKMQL
Protocol: as §1, §2

[2] = target: T5, trypsin from porcine pancreas (Sus scrofa, UniProt P00761); experiment: trypsin stability study (LC/MS); assay type: in vitro ADME
T5 construct: purchased Sigma P7409; host or cells: porcine pancreas
Protocol: as §1, §2

[3] = serum stability study (LC/MS); assay type: in vitro ADME; details: female, Sprague-Dawley; 50% SD rat serum, after 60 hours; read-out: peptide remaining intact
Protocol: as §1
as §2, with “New peptidic species (fragments) derived from enzymatic cleavage of peptides were analyzed post-process, and their molecular masses were used to identify the precise cleavage position (highlighting the scissile bond in each case).” left out

[4] = test system: Trypsin, Sigma P7409 (Type II-S); experiment: 1 mg/mL lyophilized trypsin from porcine pancreas in 50 mM Tris, 10 mM CaCl2, 150 mM NaCl, 1 mM HCl, pH 7.8; details: 37° C., up to over 18 hours
[5] = test system: Neprilysin (Neutral endopeptidase, rhNEP); experiment: 1.0 μg rhNEP in 900 μL assay buffer: 50 mM Tris, 50 mM NaCl, 50 mM NaHCO3, pH 8.3; details: 37° C., up to 240 hours
Chymotrypsin (rhCTRC) [6] = experiment: 1.0 μg rhCTRC in 900 μL assay buffer: 50 mM Tris, 10 mM CaCl2, 150 mM NaCl, 1 mM HCl, pH 7.8; details: 37° C., up to over 60 hours
Trypsin = experiment: 1 mg/mL lyophilized trypsin from porcine pancreas in 50 mM Tris, 10 mM CaCl2, 150 mM NaCl, 1 mM HCl, pH 7.8; details: 37° C., up to over 18 hours

T3 sequence (P08473 52-750 limits assumed): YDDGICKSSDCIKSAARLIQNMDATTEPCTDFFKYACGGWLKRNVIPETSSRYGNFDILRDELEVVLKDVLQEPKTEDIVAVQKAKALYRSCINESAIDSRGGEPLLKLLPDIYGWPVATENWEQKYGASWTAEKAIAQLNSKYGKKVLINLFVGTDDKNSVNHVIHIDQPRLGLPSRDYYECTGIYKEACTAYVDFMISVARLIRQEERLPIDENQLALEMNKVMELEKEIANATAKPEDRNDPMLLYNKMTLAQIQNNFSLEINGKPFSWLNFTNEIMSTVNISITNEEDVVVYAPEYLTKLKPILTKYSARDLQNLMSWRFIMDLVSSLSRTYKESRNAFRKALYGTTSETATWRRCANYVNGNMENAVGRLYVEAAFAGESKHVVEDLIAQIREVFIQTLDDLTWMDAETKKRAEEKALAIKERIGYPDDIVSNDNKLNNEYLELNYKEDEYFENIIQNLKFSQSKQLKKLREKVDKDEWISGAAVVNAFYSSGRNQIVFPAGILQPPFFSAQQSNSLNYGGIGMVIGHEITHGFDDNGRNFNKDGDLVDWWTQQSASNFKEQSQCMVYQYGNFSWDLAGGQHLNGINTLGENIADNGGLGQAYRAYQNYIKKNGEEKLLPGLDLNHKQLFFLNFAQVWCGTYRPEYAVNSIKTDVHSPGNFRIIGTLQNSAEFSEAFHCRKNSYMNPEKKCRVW
T5 sequence (P00761 9-231): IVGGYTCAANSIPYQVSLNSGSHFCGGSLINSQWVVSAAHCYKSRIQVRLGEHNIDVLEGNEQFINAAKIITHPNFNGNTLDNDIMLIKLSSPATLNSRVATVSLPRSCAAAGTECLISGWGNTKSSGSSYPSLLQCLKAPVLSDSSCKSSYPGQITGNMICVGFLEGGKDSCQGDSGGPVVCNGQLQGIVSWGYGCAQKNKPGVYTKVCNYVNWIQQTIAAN
T1 sequence (P43220 24-463): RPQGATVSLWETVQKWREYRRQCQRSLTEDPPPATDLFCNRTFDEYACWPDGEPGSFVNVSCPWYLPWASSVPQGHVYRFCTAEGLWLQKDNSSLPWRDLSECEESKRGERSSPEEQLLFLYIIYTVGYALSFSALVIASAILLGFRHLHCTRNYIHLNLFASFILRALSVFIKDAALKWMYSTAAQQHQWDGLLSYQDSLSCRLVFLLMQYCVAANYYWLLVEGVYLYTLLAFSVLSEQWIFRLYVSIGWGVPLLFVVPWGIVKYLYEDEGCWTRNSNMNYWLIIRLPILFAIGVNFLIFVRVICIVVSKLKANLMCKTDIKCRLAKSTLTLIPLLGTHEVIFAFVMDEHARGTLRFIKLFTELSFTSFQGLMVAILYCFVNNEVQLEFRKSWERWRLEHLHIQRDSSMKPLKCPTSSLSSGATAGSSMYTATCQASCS

CC[C@H](C)[C@H](NC(=O)[C@](C)(Cc1ccccc1)NC(=O)[C@H](CCC(=O)O)NC(=O)[C@H](CCCCN)NC(=O)[C@H](C)NC(=O)[C@H](C)NC(=O)[C@H](CCC(N)=O)NC(=O)CNC(=O)[C@H](CCC(=O)O)NC(=O)[C@H](CC(C)C)NC(=O)[C@](C)(Cc1ccccc1)NC(=O)[C@H](CO)NC(=O)[C@H](CO)NC(=O)[C@@H](NC(=O)[C@H](CC(=O)O)NC(=O)[C@H](CO)NC(=O)[C@@H](NC(=O)[C@](C)(Cc1ccccc1)NC(=O)[C@H](CO)NC(=O)CNC(=O)[C@H](CCC(=O)O)NC(=O)C(C)(C)NC(=O)[C@@H](N)Cc1c[nH]cn1)[C@@H](C)O)C(C)C)C(=O)N[C@@H](C)C(=O)N[C@@](C)(Cc1ccccc1)C(=O)N[C@@H](CC(C)C)C(=O)N[C@H](C(=O)N[C@@H](CCCCN)C(=O)NCC(=O)N[C@@H](CCCNC(=N)N)C(N)=O)C(C)C [SEQ ID NO: 38, H-(Aib)^2-EG-(S)^5-(α-MeF)^6-TSDV^10 SS-(α-MeF)^13-LE^15 GQAAK^20 E-(α-MeF)^22-IA-(α-MeF)^25 LVKGR^30] (H-H[Aib]EGS[αMeF]TSDVSS[αMeF]LEGQAAKE[αMeF]IA[αMeF]LVKGR-NH2)
potency compared to the GLP-1 comparator peptide, SEQ ID NO:4 (hGLP-1R): equipotent | pEC50 (hGLP-1R; n = 2): 10.47 | pEC50 (hGIP-R): 6.99 | Neprilysin resistance (Discussion / Description) (Neprilysin (rhNEP); Table 2 description): fully Neprilysin resistant but | proteolytic degradation over time-course (Neprilysin (rhNEP); neprilysin, 96 hour time-course): no proteolytic degradation | stability after prolonged exposure (Neprilysin (rhNEP); neprilysin, after 10 days (240 hours)): still stable | cleavage site observed (Chymotrypsin (rhCTRC) [1]): solely at the Leu26/Val27 | time by which degradation occurred (Chymotrypsin (rhCTRC) [1]; 37° C.): ≤ 48 h | Trypsin resistance/susceptibility (Discussion / Description) ([2]; Table 2 description): Trypsin susceptibility | time by which proteolytic degradation occurred (carboxyl side of Lys20, Lys28 and Arg30) ([2]; trypsin, 37° C.): ≤ 90 min | remaining at 60 h, 100 μg/mL [3]: ~64%

H-(Aib)^2-EG-(S)^5-(α-MeF)^6-TSDV^10 SS-(α-MeF)^13-LE^15 GQAAK^20 E-(α-MeF)^22-IA-(α-MeF)^25 L-(Aib)^27-K-(Aib)^29-R^30
not cleaved [4]: intact

H-(Aib)^2-EG-(S)^5-(α-MeF)^6-TSDV^10 SS-(α-MeF)^13-LE^15 GQAAK^20 E-(α-MeF)^22-IA-(α-MeF)^25 LVKGR^30
not cleaved [5]: no proteolytic degradation over a 96 hour time-course; still stable after 10 days | cleaved bond (Chymotrypsin (rhCTRC) [6]): Leu26-Val27, by 48 hours | cleaved bond (Trypsin): Lys20-E21, by 90 minutes; also recorded: Lys28-G29, by 90 minutes
